Laboratory results as given in patent publication EP4803080A1, “METHOD FOR TREATING LEUKEMIA” (Shenzhen TargetRx Co., Ltd., priority 2023, dated 2025).

Tested on: accelerated phase (AP) chronic myeloid leukemia (CML)
Experiment: Phase I dose escalation and dose expansion clinical trial: efficacy in CML-AP subjects
Type: in vivo, humans
Source text: This study is a single-arm, open-label, dose-escalation and dose-expansion Phase I clinical trial.
The dose-escalation phase of this trial consists of about 8 dose groups, with oral administration under fasting conditions. Subjects in all dose groups will receive a single dose on Day 1 (D1), followed by pharmacokinetic (PK) and tolerability observations. […] After entering the multiple-dose period, subjects in the first dose group will initially receive twice-daily (BID) dosing (if PK data from the single-dose period are available, the dosing frequency during the multiple-dose period may be adjusted based on the PK data). The dosing frequency for subjects in subsequent dose groups after entering the multiple-dose period will be determined based on available PK and tolerability data. Throughout the trial, dosing frequency for all subjects may be adjusted based on continuously updated safety and PK data.
A continuous reassessment method (CRM) based on the principle of the escalation with overdose control (EWOC) design will be used to recommend the next specific dose for each dose escalation, thereby completing dose escalation and determining the maximum tolerated dose (MTD). If both the investigator and sponsor believe that higher dose groups may offer better efficacy and manageable safety, the EWOC-based CRM method may be used to explore higher doses. All enrolled subjects will receive long-term treatment with the test drug and undergo evaluations for safety, tolerability, and preliminary efficacy.
After obtaining certain research data from the dose-escalation phase, the investigator may comprehensively consider safety, efficacy, and other information to decide whether to enroll additional subjects at the MTD and/or lower dose levels to determine the recommended Phase II dose (RP2D). Two to four suitable dosing regimens will be selected for expansion in the target population (including subjects enrolled at the target dose levels during the escalation phase).
A total of 8 dose groups were established: 10 mg bid, 20 mg bid, 40 mg bid, 80 mg bid, 40 mg qd, 80 mg qd, 160 mg qd, and 240 mg qd.
The dose expansion phase was conducted in the following 3 cohorts: • Cohort 1: Subjects with chronic phase (CP) chronic myeloid leukemia (CML) who had previously received at least ≥2 different TKIs and were T315I-negative. A total of 3 dose groups were established: 40 mg qd, 80 mg qd, and 240 mg qd; • Cohort 2: Subjects with chronic phase (CP) chronic myeloid leukemia (CML) who have previously received ≥1 TKI and were T315I-positive. A total of 2 dose groups were established: 40 mg qd and 240 mg qd; • Cohort 3: Subjects with accelerated phase (AP) chronic myeloid leukemia (CML) who have previously received ≥1 TKI, regardless of T315I positivity. A total of 1 dose group was established: 240 mg qd.

[1] = CML-AP subjects previously treated with ponatinib, olverembatinib, asciminib, and/or HS-10382, as of June 2, 2024
[2] = CML-AP subjects, all doses, 44 evaluable, as of August 24, 2023
[3] = CML-AP subjects, 42 evaluable, as of June 2, 2024
[4] = CML-AP subjects, as of August 24, 2023
[5] = CML-AP subjects, as of June 2, 2024
[6] = CML-AP, failed or intolerant to third or above generations of TKI therapy
[7] = CML-AP, failed or intolerant to third or above generations of TKI therapy, 28 evaluable
[8] = CML-AP, failed or intolerant to third or above generations of TKI therapy, Kaplan-Meier method
[9] = CML-AP, 10 mg BID, 1 evaluable subject, as of August 24, 2023
[10] = CML-AP, 20 mg BID, 3 evaluable subjects, as of August 24, 2023
[11] = CML-AP, 40 mg BID, 4 evaluable subjects, as of August 24, 2023
[12] = CML-AP, 40 mg QD, 2 evaluable subjects, as of August 24, 2023
[13] = CML-AP, 40 mg/day Total, 5 evaluable subjects, as of August 24, 2023
[14] = CML-AP, 80 mg BID, 0 evaluable subjects, as of August 24, 2023
[15] = CML-AP, 80 mg QD, 4 evaluable subjects, as of August 24, 2023
[16] = CML-AP, 80 mg/day Total, 8 evaluable subjects, as of August 24, 2023
[17] = CML-AP, 160 mg QD, 3 evaluable subjects, as of August 24, 2023
[18] = CML-AP, 160 mg/day Total, 3 evaluable subjects, as of August 24, 2023
[19] = CML-AP, 240 mg QD, 27 evaluable subjects, as of August 24, 2023
[20] = CML-AP, Total, all dose groups, 44 evaluable subjects, as of August 24, 2023

O=C(Nc1ccc(OC(F)(F)Cl)cc1)c1cnc(N2CC[C@@H](F)C2)c(-c2cnccn2)c1 [Compound A, (R)-N-(4-(chlorodifluoromethoxy)phenyl)-6-(3-fluoropyrrolidin-1-yl)-5-(pyrazin-2-yl)nicotinamide]
18-month cumulative incidence rate of CCyR [1]: 17% | 18-month cumulative incidence rate of MCyR [1]: 23% | CCyR [2]: 18.2% | MCyR [2]: 34.1% | MMR [2]: 4.5% | MaHR (CML-AP subjects, all doses, 46 evaluable, as of August 24, 2023): 84.8% | CHR within 3 treatment cycles [3]: 79% | MaHR within 3 treatment cycles [3]: 83% | median time to MCyR [4]: 2.76 (0.95, 5.52) months | median time to MMR [4]: 5.54 (2.79, 8.28) months | 18-month cumulative incidence of CCyR [5]: 30% | 18-month cumulative incidence of MCyR [5]: 35% | 18-month cumulative incidence of MMR [5]: 14% | median EFS [6]: 8.41 months | median PFS [6]: not reached | median duration of MaHR response [6]: not reached | median time to achieve CCyR [6]: 5.59 (4.16, 6.92) months | median time to achieve MCyR [6]: 2.69 (2.69, 5.55) months | CCyR [7]: 14.3% | MCyR [7]: 25.0% | MMR [7]: 3.6% | MaHR [7]: 78.6% | 12-month EFS rate [8]: 42.5% | 12-month PFS rate [8]: 79.9% | CCyR [9]: 0 n (%) | MCyR [9]: 0 n (%) | MMR [9]: 0 n (%) | MaHR [9]: 1 (100) n (%) | CCyR [10]: 1 (33.3) n (%) | MCyR [10]: 1 (33.3) n (%) | MMR [10]: 0 n (%) | MaHR [10]: 3 (100) n (%) | CCyR [11]: 0 n (%) | MCyR [11]: 1 (25.0) n (%) | MMR [11]: 0 n (%) | MaHR [11]: 3 (75.0) n (%) | CCyR [12]: 0 n (%) | MCyR [12]: 1 (50.0) n (%) | MMR [12]: 0 n (%) | MaHR [12]: 1 (50.0) n (%) | CCyR [13]: 1 (20.0) n (%) | MCyR [13]: 2 (40.0) n (%) | MMR [13]: 0 n (%) | MaHR [13]: 4 (80.0) n (%) | CCyR [14]: 0 n (%) | MCyR [14]: 0 n (%) | MMR [14]: 0 n (%) | MaHR [14]: 0 n (%) | CCyR [15]: 0 n (%) | MCyR [15]: 0 n (%) | MMR [15]: 0 n (%) | MaHR [15]: 3 (75.0) n (%) | CCyR [16]: 0 n (%) | MCyR [16]: 1 (12.5) n (%) | MMR [16]: 0 n (%) | MaHR [16]: 6 (75.0) n (%) | CCyR [17]: 0 n (%) | MCyR [17]: 1 (33.3) n (%) | MMR [17]: 0 n (%) | MaHR [17]: 3 (100) n (%) | CCyR [18]: 0 n (%) | MCyR [18]: 1 (33.3) n (%) | MMR [18]: 0 n (%) | MaHR [18]: 3 (100) n (%) | CCyR [19]: 7 (25.9) n (%) | MCyR [19]: 11 (40.7) n (%) | MMR [19]: 2 (7.4) n (%) | MaHR (CML-AP, 240 mg QD, 29 evaluable subjects, as of August 24, 2023): 25 (86.2) n (%) | CCyR [20]: 8 (18.2) n (%) | MCyR [20]: 15 (34.1) n (%) | MMR [20]: 2 (4.5) n (%) | MaHR (CML-AP, Total, all dose groups, 46 evaluable subjects, as of August 24, 2023): 39 (84.8) n (%)
